Data published in publication PMC3559838 (PLoS ONE, 2013).
Like-named read-outs stand apart in the source and are kept apart here.

Experiments:
[1] = tested on: histone H4 acetylation in peripheral blood mononuclear cells (PBMC) and tumor tissue; parameters: method as in Plumb et al., 2003; conditions: ref Plumb et al., 2003, cited from earlier work
[2] = parameters: method as in Investigator's Brochure, 2004; conditions: mice, single IP injection of 20 mg/kg, ref Investigator's Brochure, 2004, cited from earlier work
[3] = parameters: method as in Investigator's Brochure, 2004; conditions: following 5 or 7 days of treatment; ref Investigator's Brochure, 2004; cited from earlier work
UGT1A1 = biological target: T1, UGT1A1 (Homo sapiens, UniProt P22309); assay: UGT supersome screening and kinetic analysis; type: in vitro ADME; conditions: 37°C
T1 sequence (P22309 26-533): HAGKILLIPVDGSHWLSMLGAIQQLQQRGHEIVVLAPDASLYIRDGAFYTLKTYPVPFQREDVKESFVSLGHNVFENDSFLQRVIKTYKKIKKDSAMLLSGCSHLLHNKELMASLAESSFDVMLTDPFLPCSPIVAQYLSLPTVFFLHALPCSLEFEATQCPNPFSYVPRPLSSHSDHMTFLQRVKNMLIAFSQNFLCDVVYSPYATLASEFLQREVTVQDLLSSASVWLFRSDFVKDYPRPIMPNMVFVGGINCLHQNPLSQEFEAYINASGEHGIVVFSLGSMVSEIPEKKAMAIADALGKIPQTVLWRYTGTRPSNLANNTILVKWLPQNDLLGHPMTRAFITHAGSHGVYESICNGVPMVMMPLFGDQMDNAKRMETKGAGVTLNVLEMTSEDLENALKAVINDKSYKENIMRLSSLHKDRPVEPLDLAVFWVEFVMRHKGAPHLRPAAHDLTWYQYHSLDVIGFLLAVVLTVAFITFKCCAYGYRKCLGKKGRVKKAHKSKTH
Experimental: Plots of substrate concentration, S (X axis) versus v (Y axis) were then constructed. Km and Vmax were calculated using the Michaelis-Menten equation (GraphPad software, Inc., San Diego, CA, USA).

[4] = parameters: method as in Plumb et al., 2003; conditions: dogs, 45 minute IV infusion of 50 mg/kg; ref Plumb et al., 2003; cited from earlier work
[5] = parameters: method as in Investigator's Brochure, 2004; conditions: rats and dogs; ref Investigator's Brochure, 2004; cited from earlier work
[6] = tested on: five major cytochrome P450 enzymes; conditions: cited from earlier work
[7] = tested on: Histone H3 acetylation (Ac-H3 [K9/K14]) in HepG2 cells; assay: Western blot of acetyl histone H3; type: cell-based, human; conditions: dose increment after 5 h, time course at 10 µM
Experimental: Protein concentrations were quantified using the Bradford assay (Invitrogen). Proteins were separated on a 12% SDS-PAGE gel and transferred to nitrocellulose membrane. Nonspecific protein binding was blocked by incubating with 5% non-fat milk (BioRad Laboratories) in 0.1% PBS-Tween (PBST) at room temperature for 1 h and incubated with specific antibodies, Histone H3 and Ac-H3 [K9/K14] (Cell Signaling), at 4°C overnight. Appropriate species-specific Horseradish peroxidises-conjugated secondary antibodies were then added and incubated at room temperature for 1 h followed by detection using an enhanced chemiluminescence kit (GE Healthcare).

HepG2 cells = assay: Gentian Violet viability staining, 24-well plates; type: cell-based, human; conditions: 0–10 µM, 72 h
Experimental: To the other plate, equal molar concentrations of belinostat-G were added similarly. After 72 h, cells were stained with Gentian Violet paint (0.5% w/v; B.P.) and assessed for viability. […] After incubating 24 h, 100-µL drug solution or blank medium was added into each well of 96-well plates. 72 h later, 20 µL of MTS/PES was added into each well for incubation for 3 h. OD values are measured on wavelength 490 nm. Cell growth inhibition was calculated based on the […] with subtraction of background reading for only medium containing wells. The growth inhibition was defined as the percentage of the average […] from drug-treated wells over that from control wells without treatment. The experiment was done in triplicates. IC50 values were calculated using GraphPad PRISM software (GraphPad Software, Inc., La Jolla, CA, USA).

CYP3A4 = tested on: CYP3A4; parameters: method as in protocol pharmaceutical information; conditions: ref protocol pharmaceutical information; cited from earlier work
UGT1A4 = biological target: T2, UGT1A4 (Homo sapiens, UniProt P22310); assay: UGT supersome screening; type: in vitro ADME; conditions: UGT1A4 supersomes, 10 µM belinostat, 37°C
T2 construct: purchased BD Gentest
Experimental: (§1) Before the addition of substrate, the incubation mixture was prewarmed and equilibrated for 5 min at 37°C. […] The incubation mixture was vortexed and centrifuged (10,060 g) at 4°C for 10 min, and the supernatants were analyzed. Insect microsomes without UGT cDNA served as negative control. […] Incubations were performed as described above. Three independent experiments were performed for kinetic analysis.

UGT2B15 = biological target: T3, UGT2B15 (Homo sapiens, UniProt P54855); assay: UGT supersome screening; type: in vitro ADME; conditions: UGT2B15 supersomes, 10 µM belinostat, 37°C
T3 construct: purchased BD Gentest
Experimental: as §1

UGT2B17 = biological target: T4, UGT2B17 (Homo sapiens, UniProt O75795); assay: UGT supersome screening; type: in vitro ADME; conditions: UGT2B17 supersomes, 10 µM belinostat, 37°C
T4 construct: purchased BD Gentest
Experimental: as §1

UGT1A10 = biological target: T5, UGT1A10 (Homo sapiens, UniProt Q9HAW8); assay: UGT supersome screening; type: in vitro ADME; conditions: UGT1A10 supersomes, 10 µM belinostat, 37°C
T5 construct: purchased BD Gentest
Experimental: as §1

UGT1A7 = biological target: T6, UGT1A7 (Homo sapiens, UniProt Q9HAW7); assay: UGT supersome screening; type: in vitro ADME; conditions: UGT1A7 supersomes, 10 µM belinostat, 37°C
T6 construct: purchased BD Gentest
Experimental: as §1

UGT1A6 = biological target: T7, UGT1A6 (Homo sapiens, UniProt P19224); assay: UGT supersome screening; type: in vitro ADME; conditions: UGT1A6 supersomes, 10 µM belinostat, 37°C
T7 construct: purchased BD Gentest
Experimental: as §1

UGT1A9 = biological target: T8, UGT1A9 (Homo sapiens, UniProt O60656); assay: UGT supersome screening; type: in vitro ADME; conditions: UGT1A9 supersomes, 10 µM belinostat, 37°C
T8 construct: purchased BD Gentest
Experimental: as §1

T7 sequence (P19224 27-532): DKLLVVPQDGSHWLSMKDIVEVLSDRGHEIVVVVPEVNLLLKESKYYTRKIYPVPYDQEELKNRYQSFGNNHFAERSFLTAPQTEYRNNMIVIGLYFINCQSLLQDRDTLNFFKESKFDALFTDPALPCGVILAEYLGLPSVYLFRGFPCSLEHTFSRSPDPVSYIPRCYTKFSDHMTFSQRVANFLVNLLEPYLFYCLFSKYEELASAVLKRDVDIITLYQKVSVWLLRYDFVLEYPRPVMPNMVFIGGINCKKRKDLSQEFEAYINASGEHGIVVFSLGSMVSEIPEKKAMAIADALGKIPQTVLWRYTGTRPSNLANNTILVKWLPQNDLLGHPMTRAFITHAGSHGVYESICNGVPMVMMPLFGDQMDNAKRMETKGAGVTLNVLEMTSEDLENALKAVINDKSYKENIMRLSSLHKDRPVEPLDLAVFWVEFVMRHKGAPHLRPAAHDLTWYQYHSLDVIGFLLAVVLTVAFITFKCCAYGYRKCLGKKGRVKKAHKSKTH
T5 sequence (Q9HAW8 26-530): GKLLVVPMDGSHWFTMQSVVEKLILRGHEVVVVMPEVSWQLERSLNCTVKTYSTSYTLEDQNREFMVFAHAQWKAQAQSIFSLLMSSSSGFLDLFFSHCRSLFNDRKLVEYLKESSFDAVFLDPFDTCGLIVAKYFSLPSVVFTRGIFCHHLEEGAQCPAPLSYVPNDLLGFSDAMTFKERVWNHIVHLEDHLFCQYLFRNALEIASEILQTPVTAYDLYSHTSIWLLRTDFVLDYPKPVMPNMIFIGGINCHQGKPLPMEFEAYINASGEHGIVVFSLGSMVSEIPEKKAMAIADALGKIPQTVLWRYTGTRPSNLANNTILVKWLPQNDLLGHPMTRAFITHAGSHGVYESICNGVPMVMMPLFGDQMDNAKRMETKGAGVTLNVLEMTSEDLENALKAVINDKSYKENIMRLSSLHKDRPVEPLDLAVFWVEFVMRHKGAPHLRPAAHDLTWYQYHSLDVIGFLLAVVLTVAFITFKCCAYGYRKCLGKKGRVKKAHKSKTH
T6 sequence (Q9HAW7 26-530): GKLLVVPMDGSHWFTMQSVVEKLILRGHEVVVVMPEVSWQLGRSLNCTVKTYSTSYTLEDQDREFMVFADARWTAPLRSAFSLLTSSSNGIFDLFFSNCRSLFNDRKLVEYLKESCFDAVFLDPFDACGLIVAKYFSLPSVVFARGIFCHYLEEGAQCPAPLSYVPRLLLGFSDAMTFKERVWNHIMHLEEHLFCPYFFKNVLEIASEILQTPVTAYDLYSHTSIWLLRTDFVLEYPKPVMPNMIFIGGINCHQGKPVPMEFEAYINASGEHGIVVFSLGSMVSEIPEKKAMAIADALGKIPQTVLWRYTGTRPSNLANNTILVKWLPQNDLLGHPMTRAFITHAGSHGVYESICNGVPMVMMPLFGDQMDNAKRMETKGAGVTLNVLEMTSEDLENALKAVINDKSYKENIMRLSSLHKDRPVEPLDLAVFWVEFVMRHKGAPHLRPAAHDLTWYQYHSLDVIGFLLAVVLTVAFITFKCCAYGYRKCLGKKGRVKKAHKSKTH
T2 sequence (P22310 29-534): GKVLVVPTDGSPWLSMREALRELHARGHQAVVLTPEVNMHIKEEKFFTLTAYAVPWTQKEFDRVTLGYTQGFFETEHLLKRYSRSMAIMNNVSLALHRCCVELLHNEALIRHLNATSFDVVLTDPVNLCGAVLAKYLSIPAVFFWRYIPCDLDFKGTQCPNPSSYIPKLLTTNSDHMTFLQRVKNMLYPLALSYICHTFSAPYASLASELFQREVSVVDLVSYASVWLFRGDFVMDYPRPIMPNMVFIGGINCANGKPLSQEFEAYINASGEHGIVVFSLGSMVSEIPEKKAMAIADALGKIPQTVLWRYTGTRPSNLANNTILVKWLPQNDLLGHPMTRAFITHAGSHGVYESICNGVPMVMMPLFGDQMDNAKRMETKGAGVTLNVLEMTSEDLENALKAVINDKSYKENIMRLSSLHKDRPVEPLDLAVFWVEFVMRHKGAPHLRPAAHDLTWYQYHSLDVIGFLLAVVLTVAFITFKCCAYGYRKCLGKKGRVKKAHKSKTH
T3 sequence (P54855 24-530): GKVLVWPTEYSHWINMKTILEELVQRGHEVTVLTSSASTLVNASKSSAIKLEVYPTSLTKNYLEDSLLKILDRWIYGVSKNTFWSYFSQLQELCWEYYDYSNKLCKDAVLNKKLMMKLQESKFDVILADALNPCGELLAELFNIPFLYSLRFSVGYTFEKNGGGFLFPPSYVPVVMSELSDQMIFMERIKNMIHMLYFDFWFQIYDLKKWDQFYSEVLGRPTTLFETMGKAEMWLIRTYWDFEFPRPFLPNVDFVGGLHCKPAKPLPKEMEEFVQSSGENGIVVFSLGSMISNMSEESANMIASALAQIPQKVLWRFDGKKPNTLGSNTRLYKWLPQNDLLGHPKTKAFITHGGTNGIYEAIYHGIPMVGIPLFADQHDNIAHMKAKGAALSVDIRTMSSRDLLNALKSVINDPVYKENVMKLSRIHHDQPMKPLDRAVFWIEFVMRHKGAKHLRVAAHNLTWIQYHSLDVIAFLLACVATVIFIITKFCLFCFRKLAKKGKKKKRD
T8 sequence (O60656 26-530): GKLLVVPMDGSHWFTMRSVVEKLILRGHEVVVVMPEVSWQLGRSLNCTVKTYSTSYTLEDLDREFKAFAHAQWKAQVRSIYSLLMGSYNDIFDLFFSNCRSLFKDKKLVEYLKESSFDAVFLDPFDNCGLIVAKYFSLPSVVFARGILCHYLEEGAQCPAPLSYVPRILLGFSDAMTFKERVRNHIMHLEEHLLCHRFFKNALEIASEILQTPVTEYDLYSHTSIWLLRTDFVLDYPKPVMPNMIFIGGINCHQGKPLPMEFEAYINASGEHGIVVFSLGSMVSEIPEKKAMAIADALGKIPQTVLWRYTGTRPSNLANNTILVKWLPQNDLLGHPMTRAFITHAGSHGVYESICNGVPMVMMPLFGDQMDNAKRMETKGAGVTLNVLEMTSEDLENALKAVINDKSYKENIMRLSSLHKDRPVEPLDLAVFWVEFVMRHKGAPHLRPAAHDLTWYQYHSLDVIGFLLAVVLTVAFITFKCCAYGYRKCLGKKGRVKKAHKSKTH
T4 sequence (O75795 24-530): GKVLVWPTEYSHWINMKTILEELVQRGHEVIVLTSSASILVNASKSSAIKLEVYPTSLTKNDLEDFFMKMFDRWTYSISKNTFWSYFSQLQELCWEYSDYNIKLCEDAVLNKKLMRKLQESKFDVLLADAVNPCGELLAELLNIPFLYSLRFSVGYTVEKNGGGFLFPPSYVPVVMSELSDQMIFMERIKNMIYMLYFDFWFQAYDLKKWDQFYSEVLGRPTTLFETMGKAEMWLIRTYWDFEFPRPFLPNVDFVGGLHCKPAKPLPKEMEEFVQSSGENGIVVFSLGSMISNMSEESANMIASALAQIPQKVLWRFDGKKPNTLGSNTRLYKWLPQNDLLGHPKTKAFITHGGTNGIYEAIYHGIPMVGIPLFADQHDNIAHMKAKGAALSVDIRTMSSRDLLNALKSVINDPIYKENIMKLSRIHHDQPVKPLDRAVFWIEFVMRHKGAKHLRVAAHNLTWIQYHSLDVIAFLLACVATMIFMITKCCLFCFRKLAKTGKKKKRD

O=C(/C=C/c1cccc(S(=O)(=O)Nc2ccccc2)c1)NO [Belinostat, N-hydroxy-3-(phenylsulphamoylphenyl) acrylamide]
histone H4 acetylation in PBMC ([1]; 1 and 2 hours after a single IP injection of 40 mg/kg): Hyperacetylated histone H4 was detected
time at which acetylation returned to baseline levels ([1]; PBMC, single IP injection of 40 mg/kg): ≤ 3 h
dose with marked acetylation in both PBMCs and tumor tissue ([1]; mice): ≥ 10 mg/kg
mean plasma concentration ([2]; after 0.5 hour): 3300 ± 700 nM
mean plasma concentration ([2]; by 2 hours): 42 ± 2 nM
drug accumulation [3]: no clear indication of drug accumulation
belinostat converted to belinostat-G (UGT1A1; 2 h incubation with UGT1A1 supersomes): 73.6%
belinostat converted to belinostat-G (UGT1A1; 4 h incubation with UGT1A1 supersomes): 89.4%
glucuronidation of belinostat by UGT isoform (UGT1A1; UGT1A1 supersomes, 10 µM belinostat): glucuronidated belinostat significantly
plasma t½ [4]: approximately 40 minutes
elimination routes of PXD101 and its metabolites [5]: urinary and fecal routes
inhibition of the five major cytochrome P450 enzymes [6]: did not inhibit
Histone H3 acetylation [7]: time and concentration dependent increase
cytotoxicity / cell viability (staining) (HepG2 cells): significant dose-dependent cytotoxicity
contribution of CYP3A4 to metabolism (CYP3A4): contributes to PXD101 metabolism
metabolism by UGT isoform (UGT1A4): no metabolism was observed
metabolism by UGT isoform (UGT2B15): no metabolism was observed
metabolism by UGT isoform (UGT2B17): no metabolism was observed
metabolism by UGT isoform (UGT1A10): no metabolism was observed
metabolism by UGT isoform (UGT1A7): no metabolism was observed
metabolism by UGT isoform (UGT1A6): no metabolism was observed
metabolism by UGT isoform (UGT1A9): no metabolism was observed
